Seven molecules from paper PMC11599599, “Synthesis, characterization, molecular docking, pharmacokinetics, and molecular dynamics of new bis-thiazoles based on bis-thiosemicarbazone as anti-coxsackievirus” (Scientific Reports, 2024) can be followed below.

One data set concerns Cox B virus. The data set can be described thus: Plaque reduction assay against Cox B virus. Type of data set: cell-based. To be noted: for inhibition at 20 µg/mL / inhibition at 40 µg/mL: Vero. The procedure:
(§1) Compounds: 10 mg were dissolved in 1 mL (10% DMSO and 90% deionized water), sterilized by 1% antibiotic–antimycotic mixture and stored in −20.
(§2) Cells: Vero cell line was used. The cells were propagated in DMEM medium (Lonza, USA) supplemented with 10% fetal bovine serum (Gibco, USA), 1% antibiotic–antimycotic mixture (Lonza, USA).
Virus: Cox B virus was propagated and titrated to give final count of 0.9 × 10^5 viral particle/mL.
This test was done according to Tebas et al.[47], In a 12-well plate Vero cells (10^5 cells/mL) were cultivated for 1 day at 37 °C. The Cox B virus was mixed with the safe concentration of the compound and incubated for 1 h at 37 °C before being added to the cells. Following the removal of the growth media, the cells were injected with virus-extract combinations ([…]) and then rinsed with PBS (Phosphate Buffer Saline). Following a one-hour contact period for virus adsorption, the cell monolayer was supplemented with one milliliter of Dulbecco’s Modified Eagles Media (DMEM) containing 2% agarose. The plates were then allowed to solidify and incubated at 37 °C until the development of viral plaques. Formalin (10%) was added for 2 h then plates were stained with crystal violet. Control wells were included where untreated virus was incubated with Vero cells and finally plaques were counted and percentage reduction in plaques formation in comparison to control wells was recorded as following:
% inhibition = (viral count(untreated) - viral count(treated))/viral count(untreated)X100.
(Plaque reduction counts the foci of infection that form in a cell layer.)

A further data set relates to Vero cells. Briefly: Cytotoxicity assay on Vero cells (microscopic morphology). Type of data set: cell-based. Also noted: key to Cytotoxicity on Vero cells (cell sheet affected): -: Safe concentration; + 1, +2, + 3, +4: about 25, 50, 75, 100% of cell sheet was affected respectively; + 1, +2, + 3, +4: about 25, 50, 75, 100% of cell sheet was affected respectively; + 1, +2, + 3, +4: about 25, 50, 75, 100% of cell sheet was affected respectively; + 1, +2, + 3, +4: about 25, 50, 75, 100% of cell sheet was affected respectively; M: masked (color of compounds made cells unseen). To be noted: for Cytotoxicity on Vero cells (cell sheet affected): 24 h, morphological changes; for Safety effect on Vero cells (in words): Table 1, 24 h. The procedure:
as §1, §2
Cytotoxic effect of compounds was measured by inoculation different doses of compounds on tested cells then examining them microscopically after 24 h to determine any morphological changes that appeared on cells as a result of being subjected to the compounds[46]. Vero cells were seeded onto 96-well plates, which were then incubated for the whole night. After a 24-hour incubation period at 37 °C in a humidified incubator with 5% CO2, compounds were injected at concentrations of 10, 20, 30, 40, 50, 60, 70, 80, 90, and 100 µg /100 µl. Any morphological changes were monitored under a microscope.

The inhibition is the percentage by which the read-out fell short of the control. The term melting point denotes the temperature of the solid-liquid transition. `COc1ccc(OC)c(C=C2/C(=N/Nc3nc(C)c(/N=N/c4ccc(C)cc4)s3)c3ccccc3/C2=N\Nc2nc(C)c(/N=N/c3ccc(C)cc3)s2)c1` [7b, 2,2’-(((1E,3E)−2-(2,5-dimethoxybenzylidene)−1H-indene-1,3(2H)-diylidene)bis(hydrazin-1-yl-2-ylidene))bis(4-methyl-5-((E)-p-tolyldiazenyl)thiazole)] had a melting point of 132 to 135 °C. In the data set with Cox B virus (20 ug/mL), the “Viral count (treated)” value is reported as 1.6 × 10^7. Also, in the data set with Cox B virus (40 ug/mL), the “Viral count (treated)” value was 1.07 × 10^7. In the data set on Cox B virus, the inhibition at 20 µg/mL turned out to be 0% and the inhibition at 40 µg/mL amounted to 33%. Moreover, the “Cytotoxicity on Vero cells (cell sheet affected)” value (from here on “Cytotoxicity on Vero cells”) with Vero cells (10 µg/100µl) was “-”. Moreover, the “Cytotoxicity on Vero cells” value in the data set with Vero cells (20 µg/100µl) is “-”. Moreover, in the data set with Vero cells (30 µg/100µl), the “Cytotoxicity on Vero cells” value was “-”. Further, the “Cytotoxicity on Vero cells” value with Vero cells (40 µg/100µl) is listed as “-”. Moreover, the “Cytotoxicity on Vero cells” value in the data set on Vero cells (50 µg/100µl) is “-”. In addition, in the data set on Vero cells (60 µg/100µl), the “Cytotoxicity on Vero cells” value is on record as “M”. The “Cytotoxicity on Vero cells” value in the data set with Vero cells (70 µg/100µl) is “M”. In the data set with Vero cells (80 µg/100µl), the “Cytotoxicity on Vero cells” value is reported as “M”. Moreover, the “Cytotoxicity on Vero cells” value in the data set on Vero cells (90 µg/100µl) is reported as “M”. Also, the “Cytotoxicity on Vero cells” value with Vero cells (100 µg/100µl) is listed as “M”. Besides, the “Safety effect on Vero cells (in words)” value in the data set with Vero cells is “dense and coloured that made masking to the cell sheet”.

In the case of `COc1ccc(OC)c(C=C2/C(=N/Nc3nc(C)c(/N=N/c4ccc(Cl)cc4)s3)c3ccccc3/C2=N\Nc2nc(C)c(/N=N/c3ccc(Cl)cc3)s2)c1` [7c, 2,2’-(((1E,3E)−2-(2,5-dimethoxybenzylidene)−1H-indene-1,3(2H)-diylidene)bis(hydrazin-1-yl-2-ylidene))bis(5-((E)-(4-chlorophenyl)diazenyl)−4-methylthiazole)], the entries for the “Viral count (treated)” value with Cox B virus (20 ug/mL) and in the data set on Cox B virus (40 ug/mL) were 1.07 × 10^7 and 1.6 × 10^7, respectively. Besides, the inhibition at 20 µg/mL in the data set on Cox B virus is 33%. Moreover, in the data set on Cox B virus, the inhibition at 40 µg/mL was found to be 0%. For the same molecule, the “Cytotoxicity on Vero cells” value with Vero cells (10 µg/100µl), in the data set with Vero cells (20 µg/100µl), in the data set on Vero cells (30 µg/100µl), with Vero cells (40 µg/100µl), in the data set on Vero cells (50 µg/100µl) and in the data set with Vero cells (60 µg/100µl) was “-” each time. For the same molecule, the “Cytotoxicity on Vero cells” value is given as “-” in the data set on Vero cells (70 µg/100µl), “-” in the data set on Vero cells (80 µg/100µl), “M” in the data set with Vero cells (90 µg/100µl) and “M” in the data set on Vero cells (100 µg/100µl). For the same molecule, in the data set with Vero cells, the “Safety effect on Vero cells (in words)” value was “dense and coloured that made masking to the cell sheet”.

Consider `COc1ccc(OC)c(C=C2/C(=N/NC3=NC(=O)C(C)S3)c3ccccc3/C2=N\NC2=NC(=O)C(C)S2)c1` (centres unmarked) [9b, 2,2’-(((1E,3E)−2-(2,5-dimethoxybenzylidene)−1H-indene-1,3(2H)-diylidene)bis(hydrazin-1-yl-2-ylidene))bis(5-methylthiazol-4(5H)-one)], for which the melting point fell in the range of 198 to 200 °C. Moreover, in the data set on Vero cells (10 µg/100µl), the “Cytotoxicity on Vero cells” value is reported as “-”. In addition, the “Cytotoxicity on Vero cells” value with Vero cells (20 µg/100µl) is on record as “-”. Moreover, the “Cytotoxicity on Vero cells” value in the data set on Vero cells (30 µg/100µl) is “-”. Besides, the “Cytotoxicity on Vero cells” value in the data set on Vero cells (40 µg/100µl) is “-”. Also, in the data set on Vero cells (50 µg/100µl), the “Cytotoxicity on Vero cells” value is recorded as “-”. Besides, in the data set on Vero cells (60 µg/100µl), the “Cytotoxicity on Vero cells” value is “-”. For the same molecule, in the data set with Vero cells, the “Safety effect on Vero cells (in words)” value is “highly toxic at low concentration”.

In the case of `COc1ccc(OC)c(C=C2/C(=N/Nc3nc(C)c(C(C)=O)s3)c3ccccc3/C2=N\Nc2nc(C)c(C(C)=O)s2)c1` [11a, 1,1’-((((1E,3E)−2-(2,5-dimethoxybenzylidene)−1H-indene-1,3(2H)-diylidene)bis(hydrazin-1-yl-2-ylidene))bis(4-methylthiazole-2,5-diyl))bis(ethan-1-one)], the entries for the “Viral count (treated)” value with Cox B virus (20 ug/mL) and in the data set with Cox B virus (40 ug/mL) were 1.44 × 10^7 and 0.68 × 10^7, respectively. For the same molecule, the inhibition at 20 µg/mL with Cox B virus is 10%. The inhibition at 40 µg/mL in the data set on Cox B virus amounted to 57%. Further, the “Cytotoxicity on Vero cells” value in the data set on Vero cells (10 µg/100µl) is recorded as “-”; with Vero cells (20 µg/100µl), “-”; in the data set with Vero cells (40 µg/100µl) it was “M”; in the data set with Vero cells (50 µg/100µl), “M”; in the data set on Vero cells (60 µg/100µl), “M”; in the data set on Vero cells (70 µg/100µl), “M”. Also, the “Cytotoxicity on Vero cells” value in the data set on Vero cells (80 µg/100µl), in the data set with Vero cells (90 µg/100µl) and with Vero cells (100 µg/100µl) was “M” each time. Besides, the “Safety effect on Vero cells (in words)” value with Vero cells is “dense and coloured that made masking to the cell sheet”.

On to `CCOC(=O)c1sc(N/N=C2/C(=Cc3cc(OC)ccc3OC)/C(=N/Nc3nc(C)c(C(=O)OCC)s3)c3ccccc32)nc1C` [11b, Diethyl 2,2’-(((1E,3E)−2-(2,5-dimethoxybenzylidene)−1H-indene-1,3(2H)-diylidene)bis-(hydrazin-1-yl-2-ylidene))bis(4-methylthiazole-5-carboxylate)], for which the figures for the “Viral count (treated)” value in the data set on Cox B virus (20 ug/mL) and in the data set on Cox B virus (40 ug/mL) were 0.8 × 10^7 and 0.96 × 10^7, respectively. The inhibition at 20 µg/mL in the data set on Cox B virus came out at 50%. Also, the inhibition at 40 µg/mL in the data set with Cox B virus worked out at 40%. Also, the “Cytotoxicity on Vero cells” value in the data set on Vero cells (10 µg/100µl) is given as “-”; with Vero cells (20 µg/100µl), “-”; in the data set on Vero cells (30 µg/100µl), “-”; in the data set on Vero cells (40 µg/100µl), “-”; in the data set on Vero cells (50 µg/100µl), “-”; in the data set on Vero cells (60 µg/100µl), “M”. Further, the “Cytotoxicity on Vero cells” value with Vero cells (70 µg/100µl), in the data set on Vero cells (80 µg/100µl), in the data set on Vero cells (90 µg/100µl) and in the data set on Vero cells (100 µg/100µl) was “M” in each case. Besides, in the data set with Vero cells, the “Safety effect on Vero cells (in words)” value was “dense and coloured that made masking to the cell sheet”.

For `COc1ccc(OC)c(C=C2/C(=N/Nc3nc(C)cs3)c3ccccc3/C2=N\Nc2nc(C)cs2)c1` [11c, 2,2’-(((1E,3E)−2-(2,5-dimethoxybenzylidene)−1H-indene-1,3(2H)-diylidene)bis(hydrazin-1-yl-2-ylidene))bis(4-methylthiazole)], the “Viral count (treated)” value is on record as 0.84 × 10^7 with Cox B virus (20 ug/mL) and 0.57 × 10^7 with Cox B virus (40 ug/mL). Besides, in the data set with Cox B virus, the inhibition at 20 µg/mL is 47%. In addition, in the data set on Cox B virus, the inhibition at 40 µg/mL was 64%. In addition, the “Cytotoxicity on Vero cells” value with Vero cells (10 µg/100µl), in the data set on Vero cells (20 µg/100µl), in the data set on Vero cells (30 µg/100µl), in the data set with Vero cells (40 µg/100µl), with Vero cells (50 µg/100µl) and in the data set with Vero cells (60 µg/100µl) was “-” throughout. The “Cytotoxicity on Vero cells” value is on record as “-” with Vero cells (70 µg/100µl), “-” with Vero cells (80 µg/100µl), “M” in the data set with Vero cells (90 µg/100µl) and “M” in the data set on Vero cells (100 µg/100µl). Moreover, the “Safety effect on Vero cells (in words)” value in the data set on Vero cells was “dense and coloured that made masking to the cell sheet”.

Regarding `COc1ccc(OC)c(C=C2C(=O)c3ccccc3C2=O)c1` [compound 1, 2-(2,5-dimethoxy-benzylidene)indan-1,3-dione], the figures for the “Viral count (treated)” value in the data set on Cox B virus (20 ug/mL) and with Cox B virus (40 ug/mL) were 1.42 × 10^7 and 1.6 × 10^7, respectively. The inhibition at 20 µg/mL with Cox B virus turned out to be 11%. Besides, the inhibition at 40 µg/mL in the data set on Cox B virus amounted to 0%. The “Cytotoxicity on Vero cells” value with Vero cells (10 µg/100µl), in the data set with Vero cells (20 µg/100µl), in the data set with Vero cells (30 µg/100µl), in the data set on Vero cells (40 µg/100µl), with Vero cells (50 µg/100µl) and in the data set with Vero cells (60 µg/100µl) was “-” each time. Further, the “Cytotoxicity on Vero cells” value in the data set with Vero cells (70 µg/100µl), in the data set on Vero cells (80 µg/100µl), in the data set with Vero cells (90 µg/100µl) and in the data set on Vero cells (100 µg/100µl) was “-” in each case. In addition, the “Safety effect on Vero cells (in words)” value in the data set with Vero cells is “higher safety”.
